Test results from ChEMBL document CHEMBL5291721, “A preclinical secondary pharmacology resource illuminates target-adverse drug reaction associations of marketed drugs” (Nat Commun, 2023).

Tests used:
[1] = biological target: Beta-1 adrenergic receptor (Homo sapiens, UniProt P08588); type: functional
[2] = biological target: T1, Cholecystokinin receptor type A (Homo sapiens, UniProt P32238)
T1 sequence (P32238 whole entry): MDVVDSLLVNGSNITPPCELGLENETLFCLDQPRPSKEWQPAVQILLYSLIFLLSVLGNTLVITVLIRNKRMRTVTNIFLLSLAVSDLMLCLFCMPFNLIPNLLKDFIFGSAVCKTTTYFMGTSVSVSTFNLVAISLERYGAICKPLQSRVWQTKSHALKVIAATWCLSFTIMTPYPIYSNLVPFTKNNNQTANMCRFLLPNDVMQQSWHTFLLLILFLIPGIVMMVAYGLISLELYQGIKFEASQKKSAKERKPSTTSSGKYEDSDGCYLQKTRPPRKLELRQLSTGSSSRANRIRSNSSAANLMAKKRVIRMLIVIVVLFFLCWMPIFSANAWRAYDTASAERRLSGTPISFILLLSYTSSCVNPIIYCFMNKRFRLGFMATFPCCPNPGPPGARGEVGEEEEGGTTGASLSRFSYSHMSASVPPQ

[3] = biological target: T2, Muscarinic acetylcholine receptor M2 (Homo sapiens, UniProt P08172); type: functional, cell-based
T2 sequence (P08172 whole entry): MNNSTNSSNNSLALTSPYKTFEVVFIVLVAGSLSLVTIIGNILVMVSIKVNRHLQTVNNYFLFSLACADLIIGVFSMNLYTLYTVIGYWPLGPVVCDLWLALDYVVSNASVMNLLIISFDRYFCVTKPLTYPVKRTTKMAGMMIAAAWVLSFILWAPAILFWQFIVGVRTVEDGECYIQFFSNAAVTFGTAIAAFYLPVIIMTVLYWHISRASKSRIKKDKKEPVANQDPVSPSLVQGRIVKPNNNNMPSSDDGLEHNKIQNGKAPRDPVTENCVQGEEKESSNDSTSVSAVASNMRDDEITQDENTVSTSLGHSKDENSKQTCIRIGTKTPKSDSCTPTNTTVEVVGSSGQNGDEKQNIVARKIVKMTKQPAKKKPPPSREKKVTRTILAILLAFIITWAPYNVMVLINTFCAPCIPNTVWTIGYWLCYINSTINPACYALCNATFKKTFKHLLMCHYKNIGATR

[4] = biological target: Cannabinoid receptor 1 (Homo sapiens, UniProt P21554); type: functional, cell-based
Chain of Cannabinoid receptor 1 (P21554 whole entry): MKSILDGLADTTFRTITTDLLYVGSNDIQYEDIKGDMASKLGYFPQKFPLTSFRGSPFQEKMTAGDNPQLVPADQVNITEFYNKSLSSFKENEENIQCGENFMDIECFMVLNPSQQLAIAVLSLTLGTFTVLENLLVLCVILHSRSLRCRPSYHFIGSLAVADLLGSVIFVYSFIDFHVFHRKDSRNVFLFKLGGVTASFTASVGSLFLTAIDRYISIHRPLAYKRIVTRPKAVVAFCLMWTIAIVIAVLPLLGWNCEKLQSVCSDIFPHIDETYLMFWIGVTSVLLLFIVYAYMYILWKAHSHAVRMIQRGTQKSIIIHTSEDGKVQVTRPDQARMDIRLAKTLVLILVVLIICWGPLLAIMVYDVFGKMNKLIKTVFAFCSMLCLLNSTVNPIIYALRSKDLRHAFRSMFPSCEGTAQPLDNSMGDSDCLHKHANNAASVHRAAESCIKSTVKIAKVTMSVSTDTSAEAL

[5] = biological target: 5-hydroxytryptamine receptor 2B (Homo sapiens, UniProt P41595); type: functional, cell-based
Chain of 5-hydroxytryptamine receptor 2B (P41595 whole entry): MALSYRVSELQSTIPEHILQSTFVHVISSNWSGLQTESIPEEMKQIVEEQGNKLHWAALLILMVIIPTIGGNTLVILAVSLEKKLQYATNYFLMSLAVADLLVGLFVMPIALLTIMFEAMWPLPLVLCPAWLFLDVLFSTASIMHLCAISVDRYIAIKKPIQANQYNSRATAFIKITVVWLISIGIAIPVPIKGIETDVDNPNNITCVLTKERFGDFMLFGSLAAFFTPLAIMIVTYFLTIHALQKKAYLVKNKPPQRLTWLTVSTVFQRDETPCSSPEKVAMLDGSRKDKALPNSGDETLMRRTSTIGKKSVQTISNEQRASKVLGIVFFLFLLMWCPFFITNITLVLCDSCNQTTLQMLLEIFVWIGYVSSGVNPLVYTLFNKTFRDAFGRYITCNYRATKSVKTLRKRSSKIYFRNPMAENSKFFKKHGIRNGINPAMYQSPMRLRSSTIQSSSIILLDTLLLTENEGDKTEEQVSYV

[6] = biological target: Motilin receptor (Homo sapiens, UniProt O43193)
Chain of Motilin receptor (O43193 whole entry): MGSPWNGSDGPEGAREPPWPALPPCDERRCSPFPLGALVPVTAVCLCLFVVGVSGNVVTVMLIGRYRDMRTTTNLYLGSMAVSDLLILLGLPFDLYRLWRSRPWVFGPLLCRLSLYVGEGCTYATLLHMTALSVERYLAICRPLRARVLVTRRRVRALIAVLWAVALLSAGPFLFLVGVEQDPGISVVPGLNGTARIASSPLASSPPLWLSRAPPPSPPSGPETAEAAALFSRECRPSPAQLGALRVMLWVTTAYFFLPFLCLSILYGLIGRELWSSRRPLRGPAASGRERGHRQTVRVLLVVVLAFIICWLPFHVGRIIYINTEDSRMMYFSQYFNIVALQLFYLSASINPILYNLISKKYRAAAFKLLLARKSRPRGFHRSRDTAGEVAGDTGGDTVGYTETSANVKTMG

[7] = biological target: T3, Neuropeptide Y receptor type 1 (Homo sapiens, UniProt P25929)
T3 sequence (P25929 whole entry): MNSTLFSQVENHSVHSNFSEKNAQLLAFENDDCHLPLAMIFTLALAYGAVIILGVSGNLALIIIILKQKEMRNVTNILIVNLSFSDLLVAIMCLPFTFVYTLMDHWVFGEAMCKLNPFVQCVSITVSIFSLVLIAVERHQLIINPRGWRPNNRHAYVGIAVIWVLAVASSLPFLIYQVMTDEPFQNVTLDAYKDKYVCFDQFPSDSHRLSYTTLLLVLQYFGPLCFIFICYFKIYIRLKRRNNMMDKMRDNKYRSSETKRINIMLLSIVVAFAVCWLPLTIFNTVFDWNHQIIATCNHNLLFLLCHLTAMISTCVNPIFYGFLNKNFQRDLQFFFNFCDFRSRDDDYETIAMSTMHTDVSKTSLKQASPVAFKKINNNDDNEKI

[8] = biological target: T4, Progesterone receptor (Homo sapiens, UniProt P06401); type: functional
T4 sequence (P06401 whole entry): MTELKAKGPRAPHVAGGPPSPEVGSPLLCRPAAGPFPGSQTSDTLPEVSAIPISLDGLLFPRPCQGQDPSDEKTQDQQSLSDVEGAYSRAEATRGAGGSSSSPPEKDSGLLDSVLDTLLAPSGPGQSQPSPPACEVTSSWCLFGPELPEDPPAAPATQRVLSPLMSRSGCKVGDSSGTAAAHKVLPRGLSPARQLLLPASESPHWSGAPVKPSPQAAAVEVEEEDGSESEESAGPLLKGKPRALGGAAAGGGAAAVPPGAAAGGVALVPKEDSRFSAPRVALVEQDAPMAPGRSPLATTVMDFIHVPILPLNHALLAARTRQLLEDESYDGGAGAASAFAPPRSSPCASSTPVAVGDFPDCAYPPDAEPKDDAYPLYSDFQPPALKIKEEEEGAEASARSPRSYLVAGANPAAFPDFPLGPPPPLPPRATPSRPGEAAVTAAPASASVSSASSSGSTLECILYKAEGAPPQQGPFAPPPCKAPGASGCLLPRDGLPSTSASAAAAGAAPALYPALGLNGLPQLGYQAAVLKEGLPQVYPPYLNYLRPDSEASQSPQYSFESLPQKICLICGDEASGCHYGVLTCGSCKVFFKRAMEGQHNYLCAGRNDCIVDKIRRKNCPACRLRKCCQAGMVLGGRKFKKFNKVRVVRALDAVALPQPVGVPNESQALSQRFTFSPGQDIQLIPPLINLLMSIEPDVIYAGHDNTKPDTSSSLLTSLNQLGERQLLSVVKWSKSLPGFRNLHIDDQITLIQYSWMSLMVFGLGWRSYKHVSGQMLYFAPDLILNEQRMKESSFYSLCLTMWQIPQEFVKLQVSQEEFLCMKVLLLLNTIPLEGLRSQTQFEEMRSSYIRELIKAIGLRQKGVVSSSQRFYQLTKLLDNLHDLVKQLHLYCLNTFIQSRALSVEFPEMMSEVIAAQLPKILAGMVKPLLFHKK

[9] = biological target: T5, Amine oxidase [flavin-containing] A (Homo sapiens, UniProt P21397); type: functional
T5 sequence (P21397 whole entry): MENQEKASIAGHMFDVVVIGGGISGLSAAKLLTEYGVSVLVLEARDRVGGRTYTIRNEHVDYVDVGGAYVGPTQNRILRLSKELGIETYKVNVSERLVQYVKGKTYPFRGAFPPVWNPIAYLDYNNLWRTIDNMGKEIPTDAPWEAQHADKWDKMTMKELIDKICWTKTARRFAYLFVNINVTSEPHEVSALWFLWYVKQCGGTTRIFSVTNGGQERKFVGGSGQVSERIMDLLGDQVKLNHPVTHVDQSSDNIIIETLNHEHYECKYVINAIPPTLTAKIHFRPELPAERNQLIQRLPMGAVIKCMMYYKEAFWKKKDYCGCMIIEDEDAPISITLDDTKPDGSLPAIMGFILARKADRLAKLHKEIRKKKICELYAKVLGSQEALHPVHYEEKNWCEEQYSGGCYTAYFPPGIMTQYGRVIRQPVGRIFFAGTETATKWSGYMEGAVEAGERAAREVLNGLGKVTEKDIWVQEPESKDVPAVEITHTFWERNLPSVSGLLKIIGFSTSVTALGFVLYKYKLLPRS
Further: assay procedure not described here.

Chain of Beta-1 adrenergic receptor (P08588 whole entry): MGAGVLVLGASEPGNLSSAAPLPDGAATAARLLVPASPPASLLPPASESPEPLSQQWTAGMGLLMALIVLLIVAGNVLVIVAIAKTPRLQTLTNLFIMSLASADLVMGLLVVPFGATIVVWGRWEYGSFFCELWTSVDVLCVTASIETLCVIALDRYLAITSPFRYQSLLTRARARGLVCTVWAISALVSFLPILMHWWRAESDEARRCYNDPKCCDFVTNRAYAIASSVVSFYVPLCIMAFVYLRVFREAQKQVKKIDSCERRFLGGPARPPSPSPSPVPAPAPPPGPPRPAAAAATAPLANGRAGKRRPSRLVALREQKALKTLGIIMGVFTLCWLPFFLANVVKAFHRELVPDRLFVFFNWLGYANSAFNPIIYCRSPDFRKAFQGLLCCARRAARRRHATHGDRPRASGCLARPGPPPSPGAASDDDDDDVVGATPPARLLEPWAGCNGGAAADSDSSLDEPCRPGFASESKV

O=C(C[S+]([O-])Cc1ccco1)NC/C=C\COc1cc(CN2CCCCC2)ccn1 (stereo not given) [LAFUTIDINE]
AC50 [1]: > 10 µM
AC50 [2]: > 10 µM
AC50 [3]: > 10 µM
AC50 [4]: > 30 µM
AC50 [5]: > 10 µM
AC50 [6]: > 10 µM
AC50 [7]: > 10 µM
AC50 [8]: > 10 µM
AC50 [9]: > 10 µM

CCCCCCCC(=O)CC[C@@H]1[C@@H](C/C=C\CCCC(=O)O)[C@@H](O)C[C@H]1O [UNOPROSTONE]
AC50 [1]: > 30 µM
AC50 [2]: > 30 µM
AC50 [3]: > 30 µM
AC50 [4]: > 30 µM
AC50 [5]: > 30 µM
AC50 [6]: > 30 µM
AC50 [7]: > 30 µM
AC50 [8]: > 30 µM
AC50 [9]: > 30 µM

CCCCOC(=O)C(=O)Nc1cccc(-c2nnn[nH]2)c1 [TAZANOLAST]
AC50 [1]: > 30 µM
AC50 [2]: > 30 µM
AC50 [3]: > 30 µM
AC50 [4]: > 30 µM
AC50 [5]: > 30 µM
AC50 [6]: > 30 µM
AC50 [7]: > 30 µM
AC50 [8]: > 30 µM
AC50 [9]: > 30 µM

COc1nc(C)nc(Cl)c1N=C1NCCN1 [MOXONIDINE]
AC50 [1]: > 30 µM
AC50 [2]: > 30 µM
AC50 [3]: > 30 µM
AC50 [4]: > 30 µM
AC50 [5]: > 30 µM
AC50 [6]: > 30 µM
AC50 [7]: > 30 µM
AC50 [8]: > 30 µM
AC50 [9]: > 30 µM

CCN(C(C)=O)c1cccc(-c2ccnc3c(C#N)cnn23)c1 [ZALEPLON]
AC50 [1]: > 30 µM
AC50 [2]: > 30 µM
AC50 [3]: > 10 µM
AC50 [4]: > 30 µM
AC50 [5]: > 10 µM
AC50 [6]: > 30 µM
AC50 [7]: > 30 µM
AC50 [8]: > 30 µM
AC50 [9]: > 10 µM
